Reference: US20170354148A1, “SAFENED HERBICIDAL COMPOSITIONS CONTAINING HALAUXIFEN AND METHODS OF USE THEREOF IN BRASSICA SPECIES” (Dow AgroSciences LLC, priority 2016, published 2017)
Where “and” joins values, the source holds several entries; their conditions need not be identical. Identical values can stand only once.

Assays:
[1] = tested on: Aparima Gold swede (Brassica sp., BRSSS); experiment: Example 2 field trials (Canterbury, New Zealand), postemergence crop safety, visual phytotoxicity
[2] = tested on: Spring Argentine canola (Brassica napus, BRSNS); experiment: Example 3 field trials (Canada), postemergence crop safety, visual phytotoxicity
[3] = BRSNS, trial 1, 17DAA1, 0.62 g ae/ha
[4] = BRSNS, trial 1, 17DAA1, 1.25 g ae/ha
[5] = BRSNS, trial 1, 17DAA1, 2.5 g ae/ha
[6] = BRSNS, trial 1, 17DAA1, 5 g ae/ha
[7] = BRSNS, trial 1, 32DAA1, 0.62 g ae/ha

COC(=O)c1nc(-c2ccc(Cl)c(OC)c2F)cc(N)c1Cl [Halauxifen-methyl, methyl 4-amino-3-chloro-6-(4-chloro-2-fluoro-3-methoxyphenyl)-2-pyridineccarboxylate]
Mean % Visual Growth Inhibition ([1]; 22DAA1, 7.5 g ae/ha): 25.0% | Mean % Visual Injury ([1]; 22DAA1, 7.5 g ae/ha): 32.5% | Mean % Visual Growth Inhibition ([1]; 28DAA1, 3.75 g ae/ha): 15.0% | Mean % Visual Injury ([1]; 28DAA1, 3.75 g ae/ha): 10.0% | Mean % Visual Growth Inhibition ([1]; 28DAA1, 7.5 g ae/ha): 22.5% | Mean % Visual Injury ([1]; 28DAA1, 7.5 g ae/ha): 27.5% | Mean % Visual Growth Inhibition ([1]; 56DAA1, 7.5 g ae/ha): 23.8% | Mean % Visual Injury ([2]; BRSNS, 7DAAA, 5 g ae/ha (Tables 10, 11)): 0.8% | Mean % Visual Injury ([2]; BRSNS, 15DAAA, 5 g ae/ha (Tables 10, 11)): 50.5% | Mean % Visual Injury ([2]; BRSNS, 27DAAA, 5 g ae/ha (Tables 10, 11)): 48.5% | Mean % Visual Injury ([2]; BRSNS, 57DAAA, 5 g ae/ha (Tables 10, 11)): 30.3% | Mean % Visual Injury ([2]; BRSNS, trial 1, 7DAA1, 1.25 g ae/ha): 1.8% | Mean % Visual Injury ([2]; BRSNS, trial 1, 7DAA1, 2.5 g ae/ha): 1.8% | Mean % Visual Injury ([2]; BRSNS, trial 1, 7DAA1, 5 g ae/ha): 2.0% | Mean % Visual Epinasty [2, 3]: 2.5% | Mean % Visual Injury [2, 3]: 2.5% | Mean % Visual Epinasty [2, 4]: 2.5% | Mean % Visual Injury [2, 4]: 2.5% | Mean % Visual Epinasty [2, 5]: 3.0% | Mean % Visual Injury [2, 5]: 3.3% | Mean % Visual Epinasty [2, 6]: 2.5% | Mean % Visual Injury [2, 6]: 3.3% | Mean % Visual Epinasty [2, 7]: 5.0% | Mean % Visual Injury [2, 7]: 8.3% | Mean % Visual Injury ([2]; BRSNS, trial 1, 32DAA1, 1.25 g ae/ha): 13.0% | Mean % Visual Injury ([2]; BRSNS, trial 1, 49DAA1, 0.62 g ae/ha): 0.3% | Mean % Visual Injury ([2]; BRSNS, trial 1, 49DAA1, 1.25 g ae/ha): 2.3% | Mean % Visual Injury ([2]; BRSNS, trial 1, 49DAA1, 2.5 g ae/ha): 2.5% | Mean % Visual Injury ([2]; BRSNS, trial 2, 8DAA1, 5 g ae/ha): 4.0% and 3.0% and 2.0% | Mean % Visual Injury ([2]; BRSNS, trial 2, 8DAA1, 10 g ae/ha): 4.8% and 3.3% and 2.8% and 2.0% | Mean % Visual Injury ([2]; BRSNS, trial 2, 17DAA1, 10 g ae/ha): 35.5% | Mean % Visual Epinasty ([2]; BRSNS, trial 2, 35DAA1, 10 g ae/ha): 4.0% and 2.8% | Mean % Visual Injury ([2]; BRSNS, trial 2, 48DAA1, 5 g ae/ha): 1.8% and 1.5% | Mean % Visual Epinasty ([2]; BRSNS, trial 3, 6DAA1, 5 g ae/ha): 9.5% | Mean % Visual Epinasty ([2]; BRSNS, trial 3, 6DAA1, 10 g ae/ha): 8.8% | Mean % Visual Epinasty ([2]; BRSNS, trial 3, 23DAA1, 2.5 g ae/ha): 38.8% | Mean % Visual Epinasty ([2]; BRSNS, trial 3, 23DAA1, 5 g ae/ha): 50.0% | Mean % Visual Injury ([2]; BRSNS, trial 3, 33DAA1, 5 g ae/ha): 6.5% and 2.0% | Mean % Visual Injury ([2]; BRSNS, trial 3, 33DAA1, 10 g ae/ha): 5.5% | Mean % Visual Injury ([2]; BRSNS, trial 3, 69DAA1, 2.5 g ae/ha): 3.0% | Mean % Visual Injury ([2]; BRSNS, trial 3, 69DAA1, 5 g ae/ha): 4.0% | Mean % Visual Injury ([2]; BRSNS, trial 4, 8DAA1, 5 g ae/ha): 8.0% | Mean % Visual Injury ([2]; BRSNS, trial 4, 15DAA1, 0.62 g ae/ha): 3.5% | Mean % Visual Injury ([2]; BRSNS, trial 4, 15DAA1, 2.5 g ae/ha): 14.3% | Mean % Visual Epinasty ([2]; BRSNS, trial 4, 17DAA1, 5 g ae/ha): 23.3% | Mean % Visual Injury ([2]; BRSNS, trial 4, 41DAA1, 5 g ae/ha): 8.0% | Mean % Visual Injury ([2]; BRSNS, trial 4, 82DAA1, 5 g ae/ha): 6.0% | Mean % Visual Injury ([2]; BRSNS, trial 5, 7DAA1, 5 g ae/ha): 7.5% | Mean % Visual Injury ([2]; BRSNS, trial 5, 7DAA1, 10 g ae/ha): 9.0% and 3.5% and 2.0% and 1.5% | Mean % Visual Injury ([2]; BRSNS, trial 5, 15DAA1, 5 g ae/ha): 27.0% | Mean % Visual Injury ([2]; BRSNS, trial 5, 15DAA1, 10 g ae/ha): 9.0% and 2.5% and 1.0% | Mean % Visual Injury ([2]; BRSNS, trial 5, 36DAA1, 10 g ae/ha): 6.0% | Mean % Visual Injury ([2]; BRSNS, trial 5, 79DAA1, 10 g ae/ha): 3.0% and 4.5% and 5.3% | Mean % Visual Injury ([2]; BRSNS, trial 6, 6DAA1, 5 g ae/ha): 24.5% | Mean % Visual Injury ([2]; BRSNS, trial 6, 6DAA1, 10 g ae/ha): 27.5% | Mean % Visual Injury ([2]; BRSNS, trial 6, 23DAA1, 2.5 g ae/ha): 38.8% | Mean % Visual Injury ([2]; BRSNS, trial 6, 23DAA1, 5 g ae/ha): 52.5% | Mean % Visual Injury ([2]; BRSNS, trial 6, 33DAA1, 2.5 g ae/ha): 22.5% | Mean % Visual Injury ([2]; BRSNS, trial 6, 33DAA1, 5 g ae/ha): 43.0% | Mean % Visual Injury ([2]; BRSNS, trial 6, 59DAA1, 2.5 g ae/ha): 28.5% | Mean % Visual Injury ([2]; BRSNS, trial 7, 17DAA1, 5 g ae/ha): 45.0% | Mean % Visual Injury ([2]; BRSNS, trial 7, 27DAA1, 5 g ae/ha): 34.0% | Mean % Visual Injury ([2]; BRSNS, trial 8, 7DAA1, 5 g ae/ha): 0.8% | Mean % Visual Injury ([2]; BRSNS, trial 8, 57DAA1, 0.62 g ae/ha): 4.8% | Mean % Visual Injury ([2]; BRSNS, trial 9, 27DAA1, 5 g ae/ha): 6.8% | Mean % Visual Injury ([2]; BRSNS, trial 9, 60DAA1, 10 g ae/ha): 22.5% and 12.5% | Mean % Visual Injury ([2]; Table 14, 7DAAA, halauxifen-methyl 5, quinclorac 101 g ae/ha, alone or mixed): 0.8% | Mean % Visual Injury ([2]; Table 14, 15DAAA, halauxifen-methyl 5, quinclorac 101 g ae/ha, alone or mixed): 50.5% | Mean % Visual Injury ([2]; Table 14, 27DAAA, halauxifen-methyl 5, quinclorac 101 g ae/ha, alone or mixed): 48.5% | Mean % Visual Injury ([2]; Table 14, 57DAAA, halauxifen-methyl 5, quinclorac 101 g ae/ha, alone or mixed): 30.3% | Mean % Visual Injury ([2]; Table 15, 7DAAA, halauxifen-methyl 5, clopyralid-olamine 150, quinclorac 101 g ae/ha, alone or mixed): 0.8% | Mean % Visual Injury ([2]; Table 15, 15DAAA, halauxifen-methyl 5, clopyralid-olamine 150, quinclorac 101 g ae/ha, alone or mixed): 50.5% | Mean % Visual Injury ([2]; Table 15, 27DAAA, halauxifen-methyl 5, clopyralid-olamine 150, quinclorac 101 g ae/ha, alone or mixed): 48.5% | Mean % Visual Injury ([2]; Table 15, 57DAAA, halauxifen-methyl 5, clopyralid-olamine 150, quinclorac 101 g ae/ha, alone or mixed): 30.3% | Mean % Visual Injury ([2]; Table 16, 7DAAA, halauxifen-methyl 5 g ae/ha, alone or plus isoxadifen-ethyl 5 g ae/ha): 0.8% | Mean % Visual Injury ([2]; Table 16, 15DAAA, halauxifen-methyl 5 g ae/ha, alone or plus isoxadifen-ethyl 5 g ae/ha): 50.5% | Mean % Visual Injury ([2]; Table 16, 27DAAA, halauxifen-methyl 5 g ae/ha, alone or plus isoxadifen-ethyl 5 g ae/ha): 48.5% | Mean % Visual Injury ([2]; Table 16, 57DAAA, halauxifen-methyl 5 g ae/ha, alone or plus isoxadifen-ethyl 5 g ae/ha): 30.3% | Mean % Visual Injury ([2]; Table 17, 7DAAA, halauxifen-methyl 5, clopyralid-olamine 150 g ae/ha alone, or both mixed with isoxadifen-ethyl 5 g ae/ha): 0.8%
